Reference: paper PMC10791743, “Selective CK1α degraders exert antiproliferative activity against a broad range of human cancer cell lines” (Nature Communications, 2024)
“And” between values parts separate entries of the source, which are not always exact repeats. Identical values can stand only once.

Assays:
[1] = biological target: T1, IKZF2 (Homo sapiens, UniProt Q96SW2+Q9UKS7); assay: IKZF2 immunoblotting in MOLM-13 cells; type: cell-based
T1 construct: endogenous in cells; host or cells: MOLM-13
T1 sequence (Q9UKS7 whole entry): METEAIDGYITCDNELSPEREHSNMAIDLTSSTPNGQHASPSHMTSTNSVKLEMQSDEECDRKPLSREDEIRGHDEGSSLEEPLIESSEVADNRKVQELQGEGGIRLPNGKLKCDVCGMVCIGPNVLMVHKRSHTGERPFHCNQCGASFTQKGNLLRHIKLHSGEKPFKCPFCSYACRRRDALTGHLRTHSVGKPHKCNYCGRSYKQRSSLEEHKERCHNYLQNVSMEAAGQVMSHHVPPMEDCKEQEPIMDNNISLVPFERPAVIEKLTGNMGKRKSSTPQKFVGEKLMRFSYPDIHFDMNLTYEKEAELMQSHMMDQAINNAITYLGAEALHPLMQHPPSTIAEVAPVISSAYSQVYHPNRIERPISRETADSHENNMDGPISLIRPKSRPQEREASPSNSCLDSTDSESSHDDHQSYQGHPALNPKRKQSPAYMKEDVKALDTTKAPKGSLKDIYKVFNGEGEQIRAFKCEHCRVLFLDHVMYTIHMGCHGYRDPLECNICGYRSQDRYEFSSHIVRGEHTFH
T1 sequence (Q96SW2 whole entry): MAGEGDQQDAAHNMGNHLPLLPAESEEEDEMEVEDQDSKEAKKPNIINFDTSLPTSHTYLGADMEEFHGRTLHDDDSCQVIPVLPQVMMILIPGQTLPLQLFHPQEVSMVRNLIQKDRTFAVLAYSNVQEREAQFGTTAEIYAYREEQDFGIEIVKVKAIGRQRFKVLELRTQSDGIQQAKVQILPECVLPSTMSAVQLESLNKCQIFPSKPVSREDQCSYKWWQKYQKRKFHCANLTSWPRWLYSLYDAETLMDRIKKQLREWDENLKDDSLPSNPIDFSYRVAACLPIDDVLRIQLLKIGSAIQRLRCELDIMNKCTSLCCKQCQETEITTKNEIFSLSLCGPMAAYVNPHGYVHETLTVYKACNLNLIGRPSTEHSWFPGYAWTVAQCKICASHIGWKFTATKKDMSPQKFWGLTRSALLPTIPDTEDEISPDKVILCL
T1 sequence (Q16531 whole entry partner): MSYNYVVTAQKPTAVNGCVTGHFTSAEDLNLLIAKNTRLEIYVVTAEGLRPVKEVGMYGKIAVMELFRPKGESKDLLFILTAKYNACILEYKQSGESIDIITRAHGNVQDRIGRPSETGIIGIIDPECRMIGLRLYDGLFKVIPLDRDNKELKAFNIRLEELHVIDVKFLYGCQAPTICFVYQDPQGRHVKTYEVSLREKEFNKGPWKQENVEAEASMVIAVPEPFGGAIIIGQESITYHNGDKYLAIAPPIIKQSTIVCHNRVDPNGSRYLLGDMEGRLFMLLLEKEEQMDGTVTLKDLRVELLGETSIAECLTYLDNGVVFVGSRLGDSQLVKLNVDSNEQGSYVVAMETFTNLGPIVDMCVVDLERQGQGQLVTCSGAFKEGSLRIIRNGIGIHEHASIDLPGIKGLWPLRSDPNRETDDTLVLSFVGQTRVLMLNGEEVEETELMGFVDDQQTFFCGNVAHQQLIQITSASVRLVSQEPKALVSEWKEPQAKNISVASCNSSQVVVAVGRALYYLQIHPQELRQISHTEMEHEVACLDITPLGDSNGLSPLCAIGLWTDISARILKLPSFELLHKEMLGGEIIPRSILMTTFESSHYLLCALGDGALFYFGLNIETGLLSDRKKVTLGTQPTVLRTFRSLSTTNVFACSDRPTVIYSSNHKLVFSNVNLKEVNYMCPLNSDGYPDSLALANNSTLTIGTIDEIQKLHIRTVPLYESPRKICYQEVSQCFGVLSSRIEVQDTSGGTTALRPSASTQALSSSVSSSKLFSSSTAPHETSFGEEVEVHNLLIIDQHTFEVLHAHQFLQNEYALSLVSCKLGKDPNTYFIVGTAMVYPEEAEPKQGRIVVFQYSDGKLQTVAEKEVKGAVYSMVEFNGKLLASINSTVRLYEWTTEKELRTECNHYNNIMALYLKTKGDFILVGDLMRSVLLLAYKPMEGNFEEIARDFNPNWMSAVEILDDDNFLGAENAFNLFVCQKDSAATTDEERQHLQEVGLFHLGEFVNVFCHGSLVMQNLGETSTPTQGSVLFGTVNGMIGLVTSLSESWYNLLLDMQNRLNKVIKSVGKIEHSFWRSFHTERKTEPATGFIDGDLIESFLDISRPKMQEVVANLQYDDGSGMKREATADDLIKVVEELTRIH
Procedure: We further tested the specificity of SJ3149 considering that previously reported CK1α degraders also lead to degradation of IKZF2[26]. Even though there was a negligible change in IKZF2 protein level in our proteomics studies, we sought to confirm this observation by immunoblotting. In a similar experiment to those shown in Fig. 2b, MOLM-13 cells were treated with SJ3149 for 4 h at increasing concentrations ranging from 1 nM to 10 µM and analyzed by immunoblotting to quantify IKZF2 and CK1α proteins. While at 4 nM concentration SJ3149 induced 50% degradation of CK1α protein, IKZF2 levels were reduced by only ~40% at the highest dose (10 μM), confirming the selectivity of SJ3149 for CK1α over IKZF2 (Supplementary Fig. 6d). These collective data support the claim that CK1α degradation is responsible for the observed cellular phenotypes induced by SJ3149 treatment.
Frozen pellets of ~1 million cells were lysed in 150 µl of SDS lysis buffer (60 mM Tris/HCl pH 7, 10% glycerol, 2% SDS, 5% beta-mercaptoethanol, 0.02% bromophenol blue, 0.5% protease and phosphatase inhibitor cocktail (Sigma Aldrich)). When cells were resuspended, samples were heated for 3 min at 99 °C then put on ice. Samples were then fragmented by sonication for 10 0.5-s pulses (550 Sonic Dismembrator, Fisher Scientific) and heated again at 99 °C for 2 min. 15 μl of each sample was added to the wells of a 4–20% polyacrylamide gel (Bio-Rad). A mixture of 2 μl of Precision Plus Protein Unstained Standards and 2 μl of Precision Plus Protein All Blue Standards (Bio-Rad) was used for the size marker. After electrophoresis, gels were transferred to nitrocellulose membrane using the Bio-Rad Trans-Blot Turbo system on the mixed molecular weight setting. Membranes were blocked for 1 h in Li-Cor Intercept Blocking Buffer then probed overnight at 4 °C with primary antibody, at 1:1000 dilution or 1:2000 dilution for actin, in Li-Cor Intercept Antibody Diluent. The following morning, membranes were washed three times for 5 min with TBS + 0.05% Tween-20, probed with fluorescent secondary antibodies (goat anti-rabbit IRDye 800CW and goat anti-mouse IRDye 680RD, Li-Cor) for 1 h at room temperature in the dark at 1:10,000 dilution, and washed again 3 times. Blots were imaged with the Li-Cor Odyssey CLx and analyzed using Image Studio Version 5.2.
Primary antibodies used: rabbit anti-CK1α, ab206652, clone EPR19824, Abcam rabbit anti-p21, 2947S, clone 12D1, Cell Signaling Technology rabbit anti-Helios (IKZF2), 42427, clone D8W4X, Cell Signaling Technology mouse anti-beta actin, 3700S, clone 8H10D10, Cell Signaling Technology

[2] = system: β-catenin; assay: HiBiT-β-catenin stabilization, live-cell kinetic (HEK293 cells); type: cell-based
Procedure: Next, TMT-proteomics studies were performed to determine broader degradation selectivity profiles of our two lead compounds. […] As expected, increased protein levels of p53, p21, and β-catenin were detected in the treated cells. To investigate the relationship between β-catenin stabilization relative to CK1α degradation, kinetic monitoring of endogenously tagged HiBiT-β-catenin was performed in live cells and compared to our measurements of CK1α degradation kinetics. Treatment of cells with the lead compounds from each series led to dose-dependent stabilization of β-catenin levels with slower kinetics compared to the observed rapid degradation of CK1α. […]
White 96-well assay plates (Corning, Cat. # 3017) were seeded with 30,000 cells/well in growth media for CK1α-HiBiT HEK293 LgBiT stable and HiBiT-β-catenin HEK293 LgBiT stable and incubated overnight at 37 °C and 5% CO2. […] Luminescence was allowed to equilibrate for all plates for 2.5 h. […] Luminescence was read every 5 min for 24 h. At the end of all 24-h cycles, CellTiter Glo 2.0 (Promega, Cat. #G9242) was added to the plates, incubated for at least 10 min and luminescence was read using the GloMax Discover.
Relative protein level was determined based on normalization to the DMSO control and reported at Fractional RLUs. […]

[3] = western blot quantification, relative to DMSO

## O=C1CCC(N2Cc3cc(Nc4noc5ccccc45)ccc3C2=O)C(=O)N1 (stereo not drawn) [SJ3149]
[1]; MOLM-13, 10 μM, 4 h
  IKZF2 level reduction: ~ 40%
[1]; SJ3149 0.001 uM, relative to DMSO
  IKZF2 western blot quantification: 1.093 and 0.9655 and 0.8978
[1]; SJ3149 0.01 uM, relative to DMSO
  IKZF2 western blot quantification: 0.8205 and 1.143 and 0.8035
[1]; SJ3149 0.1 uM, relative to DMSO
  IKZF2 western blot quantification: 0.5925 and 0.7587 and 0.8297
[1]; SJ3149 1 uM, relative to DMSO
  IKZF2 western blot quantification: 0.5412 and 0.7758 and 0.64
[1]; SJ3149 10 uM, relative to DMSO
  IKZF2 western blot quantification: 0.4999 and 0.6664 and 0.6326
[1]; [3]
  Bottom (sigmoidal 4PL fit) of IKZF2 protein level: 0.61
  Top (sigmoidal 4PL fit) of IKZF2 protein level: 1.002
[2]
  Time to detectable increase of β-catenin: ≤ 30 min
